The results in this text go back to patent US7741341B2, “Benzimidazole-derivatives as factor Xa inhibitors” (sanofi-aventis Deutschland GmbH, priority 2003, dated 2010).

The target of this test is T1, human factor Xa (Homo sapiens, UniProt P00742).
T1 construct: human factor Xa (Enzyme Research Laboratories, Inc; South Bend, Ind.); purchased Enzyme Research Laboratories, Inc; South Bend, Ind
T1 sequence (P00742 235-488 limits assumed): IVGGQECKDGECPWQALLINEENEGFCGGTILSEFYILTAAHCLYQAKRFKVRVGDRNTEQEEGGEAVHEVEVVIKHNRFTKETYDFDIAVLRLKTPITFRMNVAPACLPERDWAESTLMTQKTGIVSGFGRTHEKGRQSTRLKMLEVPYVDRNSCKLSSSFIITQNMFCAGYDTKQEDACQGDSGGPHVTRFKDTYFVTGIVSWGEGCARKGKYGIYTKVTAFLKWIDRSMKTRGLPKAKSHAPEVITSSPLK
T1 sequence (P00742 41-179 partner limits assumed): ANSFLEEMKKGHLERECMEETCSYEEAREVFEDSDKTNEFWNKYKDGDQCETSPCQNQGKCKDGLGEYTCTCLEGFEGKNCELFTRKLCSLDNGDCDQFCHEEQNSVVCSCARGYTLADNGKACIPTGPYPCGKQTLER
Kind of test: Factor Xa assay (chromogenic, substrate S-2765). It counts as biochemical. Conditions: read-out: Ki(FXa). As for the experimental part:
Purified enzymes were used in chromogenic assays.
The IC50 was determined by combining in appropriate wells of a Costar half-area microtiter plate 25 μl human factor Xa (Enzyme Research Laboratories, Inc.; South Bend, Ind.) in TBS-PEG; 40 μl 10% (v/v) DMSO in TBS-PEG (uninhibited control) or various concentrations of the compound to be tested diluted in 10% (v/v) DMSO in TBS-PEG; and substrate S-2765 (N(α)-benzyloxycarbonyl-D-Arg-Gly-L-Arg-p-nitroanilide; Kabi Pharmacia, Inc.; Franklin, Ohio) in TBS-PEG.
The assay was performed by pre-incubating the compound of formula I plus enzyme for 10 min. Then the assay was initiated by adding substrate to obtain a final volume of 100 μl. […] The enzyme concentration was 0.5 nM and substrate concentration was 140 μM.
`O=C(Nc1ccc(-n2ccc(=O)cc2)cc1)c1nc2ccccc2n1Cc1cc(-c2ccc(Cl)s2)on1` [Example 37, 1-[5-(5-Chloro-thiophen-2-yl)-isoxazol-3-ylmethyl]-1H-benzoimidazole-2-carboxylic acid [4-(4-oxo-4H-pyridin-1-yl)-phenyl]-amide]: the Ki is 12 nM.

As to `CC(C)N1CCC(NC(=O)c2nc3ccc(C(=O)NCCO)cc3n2CC(=O)Nc2ccc(Cl)cn2)CC1` [Example 57, 3-[(5-Chloro-pyridin-2-ylcarbamoyl)-methyl]-3H-benzoimidazole-2,5-dicarboxylic acid 5-[(2-hydroxy-ethyl)-amide]2-[(1-isopropyl-piperidin-4-yl)-amide]], the Ki was determined as 585 nM.

For the compound `CC(C)N1CCC(NC(=O)c2nc3cc(C(=O)O)ccc3n2CC(=O)Nc2ccc(Cl)cn2)CC1` [Example 18, 1-[(5-Chloro-pyridin-2-ylcarbamoyl)-methyl]-2-(1-isopropyl-piperidin-4-ylcarbamoyl)-1H-benzoimidazole-5-carboxylic acid], the Ki was determined as 22.5 nM.

For `CCOC(=O)OC(C)OC(=O)c1ccc2c(c1)nc(C(=O)NC1CCN(C(C)C)CC1)n2Cc1cc(-c2ccc(Cl)s2)on1` (centres unmarked) [Example 27, 1-[5-(5-Chloro-thiophen-2-yl)-isoxazol-3-ylmethyl]-2-(1-isopropyl-piperidin-4-ylcarbamoyl)-1H-benzoimidazole-5-carboxylic acid 1-ethoxycarbonyloxy-ethyl ester], the Ki amounted to 12.5 nM.

As to `CC(C)N1CCC(NC(=O)c2nc3ccccc3n2Cc2cc(-c3ccc(Cl)s3)on2)CC1` [Example 1, 1-[5-(5-Chloro-thiophen-2-yl)-isoxazol-3-ylmethyl]-1H-benzoimidazole-2-carboxylic acid (1-isopropyl-piperidin-4-yl)-amide], the inhibition constant Ki was determined as 0.7 nM.

Turning to `CC(C)N1CCC(NC(=O)c2nc3cc(C(=O)O)ccc3n2Cc2cnc(-c3ccc(Cl)s3)s2)CC1` [Example 9, 1-[2-(5-Chloro-thiophen-2-yl)-thiazol-5-ylmethyl]-2-(1-isopropyl-piperidin-4-ylcarbamoyl)-1H-benzoimidazole-5-carboxylic acid], the inhibitory constant (Ki) turned out to be 94 nM.

Take `CC(C)N1CCC(NC(=O)c2nc3cccnc3n2Cc2cc(-c3ccc(Cl)s3)on2)CC1` [Example 14, 3-[5-(5-Chloro-thiophen-2-yl)-isoxazol-3-ylmethyl]-3H-imidazo[4,5-b]pyridine-2-carboxylic acid (1-isopropyl-piperidin-4-yl)-amide]: the Ki came out at 2390 nM.

On to `CC(OC(=O)OC1CCCCC1)OC(=O)c1ccc2c(c1)nc(C(=O)NC1CCN(C(C)C)CC1)n2CC(=O)Nc1ccc(Cl)cn1` (centres unmarked) [Example 60, 1-[(5-Chloro-pyridin-2-ylcarbamoyl)-methyl]-2-(1-isopropyl-piperidin-4-ylcarbamoyl)-1H-benzoimidazole-5-carboxylic acid 1-cyclohexyloxycarbonyloxy-ethyl ester], for which the Ki was 35 nM.

`CC(C)N1CCC(NC(=O)c2nc3cc(C(=O)N4CC(O)C4)ccc3n2CC(=O)Nc2ccc(Cl)cn2)CC1` [Example 54, 1-[(5-Chloro-pyridin-2-ylcarbamoyl)-methyl]-5-(3-hydroxy-azetidine-1-carbonyl)-1H-benzoimidazole-2-carboxylic acid (1-isopropyl-piperidin-4-yl)-amide]: the Ki was found to be 31 nM.

For `O=C(Nc1ccc(N2CCNCC2=O)cc1)c1nc2ccccc2n1Cc1cc(-c2ccc(Cl)s2)on1` [Example 50, 1-[5-(5-Chloro-thiophen-2-yl)-isoxazol-3-ylmethyl]-1H-benzoimidazole-2-carboxylic acid [4-(2-oxo-piperazin-1-yl)-phenyl]-amide], the Ki was 141 nM.

On to `CC(C)N1CCC(NC(=O)c2nc3c(C(=O)N4CC(O)C4)cccc3n2CC(=O)Nc2ccc(Cl)cn2)CC1` [Example 32, 1-[(5-Chloro-pyridin-2-ylcarbamoyl)-methyl]-4-(3-hydroxy-azetidine-1-carbonyl)-1H-benzoimidazole-2-carboxylic acid (1-isopropyl-piperidin-4-yl)-amide], for which the Ki stood at 10.5 nM.

Take `CC(C)N1CCC(NC(=O)c2nc3c(C(=O)N4CCCOCC4)cccc3n2CC(=O)Nc2ccc(Cl)cn2)CC1` [Example 74, 1-[(5-Chloro-pyridin-2-ylcarbamoyl)-methyl]-4-([1,4]oxazepane-4-carbonyl)-1H-benzoimidazole-2-carboxylic acid (1-isopropyl-piperidin-4-yl)-amide]: the Ki was 10.5 nM.

As to `CC(C)N1CCC(NC(=O)c2nc3c(C(=O)N4CCOCC4)cccc3n2CC(=O)Nc2ccc(Cl)cn2)CC1` [Example 73, 1-[(5-Chloro-pyridin-2-ylcarbamoyl)-methyl]-4-(morpholine-4-carbonyl)-1H-benzoimidazole-2-carboxylic acid (1-isopropyl-piperidin-4-yl)-amide], the Ki was 19 nM.

As for `COCCOc1cccc2c1nc(C(=O)Nc1ccc(N3CCOCC3=O)cc1)n2CC(=O)Nc1ccc(Cl)cn1` [Example 52, 1-[(5-Chloro-pyridin-2-ylcarbamoyl)-methyl]-4-(2-methoxy-ethoxy)-1H-benzoimidazole-2-carboxylic acid [4-(3-oxo-morpholin-4-yl)-phenyl]-amide], the Ki was determined as 14 nM.

As for `COC1CN(C(=O)c2cccc3c2nc(C(=O)NC2CCN(C(C)C)CC2)n3Cc2cc(-c3ccc(Cl)s3)on2)C1` [Example 80, 1-[5-(5-Chloro-thiophen-2-yl)-isoxazol-3-ylmethyl]-4-(3-methoxy-azetidine-1-carbonyl)-1H-benzoimidazole-2-carboxylic acid (1-isopropyl-piperidin-4-yl)-amide], the inhibitory constant (Ki) was determined as 7 nM.

As for `O=C(Cn1c(C(=O)Nc2ccc(N3CCOC3=O)cc2)nc2ccccc21)Nc1ccc(Cl)cn1` [Example 43, 1-[(5-Chloro-pyridin-2-ylcarbamoyl)-methyl]-1H-benzoimidazole-2-carboxylic acid [4-(2-oxo-oxazolidin-3-yl)-phenyl]-amide], the Ki is 840 nM.

As to `O=C(Cn1c(C(=O)Nc2ccc(N3CCOCC3=O)cc2)nc2ccccc21)Nc1ccc(Cl)cn1` [Example 35, 1-[(5-Chloro-pyridin-2-ylcarbamoyl)-methyl]-1H-benzoimidazole-2-carboxylic acid [4-(3-oxo-morpholin-4-yl)-phenyl]-amide], the Ki came out at 41 nM.

Regarding `CC(OC(=O)OC1CCCCC1)OC(=O)c1ccc2nc(C(=O)NC3CCN(C(C)C)CC3)n(CC(=O)Nc3ccc(Cl)cn3)c2c1` (centres unmarked) [Example 61, 3-[(5-Chloro-pyridin-2-ylcarbamoyl)-methyl]-2-(1-isopropyl-piperidin-4-ylcarbamoyl)-3H-benzoimidazole-5-carboxylic acid 1-cyclohexyloxycarbonyloxy-ethyl ester], the Ki was determined as 867 nM.

Take `COC(=O)c1cccc2c1nc(C(=O)NC1CCN(C(C)C)CC1)n2CC(=O)Nc1ccc(Cl)cn1` [Example 15, 1-[(5-Chloro-pyridin-2-ylcarbamoyl)-methyl]-2-(1-isopropyl-piperidin-4-ylcarbamoyl)-1H-benzoimidazole-4-carboxylic acid methyl ester]: the Ki was 11.5 nM.

Consider `O=C(Cn1c(C(=O)Nc2ccc(N3CCNCC3=O)cc2)nc2ccccc21)Nc1ccc(Cl)cn1` [Example 51, 1-[(5-Chloro-pyridin-2-ylcarbamoyl)-methyl]-1H-benzoimidazole-2-carboxylic acid [4-(2-oxo-piperazin-1-yl)-phenyl]-amide], for which the inhibition constant (Ki) worked out at 510 nM.

Take `CC(C)N1CCC(NC(=O)c2nc3ccccc3n2CC(=O)Nc2ccc(Cl)cn2)CC1` [Example 3, 1-[(5-Chloro-pyridin-2-ylcarbamoyl)-methyl]-1H-benzoimidazole-2-carboxylic acid (1-isopropyl-piperidin-4-yl)-amide]: the Ki is 1.4 nM.

In the case of `CC(C)N1CCC(NC(=O)c2nc3c(C(=O)N4CC(O)C4)cccc3n2Cc2cc(-c3ccc(Cl)s3)on2)CC1` [Example 23, 1-[5-(5-Chloro-thiophen-2-yl)-isoxazol-3-ylmethyl]-4-(3-hydroxy-azetidine-1-carbonyl)-1H-benzoimidazole-2-carboxylic acid (1-isopropyl-piperidin-4-yl)-amide], the Ki turned out to be 8 nM.

Consider `COC(=O)c1cccc2c1nc(C(=O)Nc1ccc(N3CCOCC3=O)cc1)n2CC(=O)Nc1ccc(Cl)cn1` [Example 36, 1-[(5-Chloro-pyridin-2-ylcarbamoyl)-methyl]-2-[4-(3-oxo-morpholin-4-yl)-phenylcarbamoyl]-1H-benzoimidazole-4-carboxylic acid methyl ester], for which the inhibitory constant (Ki) was 31.5 nM.

As for `CC(C)N1CCC(NC(=O)c2nc3cc(C(=O)OCCO)ccc3n2Cc2cc(-c3ccc(Cl)s3)on2)CC1` [Example 78, 1-[5-(5-Chloro-thiophen-2-yl)-isoxazol-3-ylmethyl]-2-(1-isopropyl-piperidin-4-ylcarbamoyl)-1H-benzoimidazole-5-carboxylic acid 2-hydroxy-ethyl ester], the Ki is 3.5 nM.

For `CCOC(=O)OC(C)OC(=O)c1ccc2c(c1)nc(C(=O)NC1CCN(C(C)C)CC1)n2CC(=O)Nc1ccc(Cl)cn1` (centres unmarked) [Example 62, 1-[(5-Chloro-pyridin-2-ylcarbamoyl)-methyl]-2-(1-isopropyl-piperidin-4-ylcarbamoyl)-1H-benzoimidazole-5-carboxylic acid 1-ethoxycarbonyloxy-ethyl ester], the Ki is 19 nM.

As to `CC(C)N1CCC(NC(=O)c2nc3c(C(=O)O)cccc3n2Cc2cc(-c3ccc(Cl)s3)on2)CC1` [Example 12, 1-[5-(5-Chloro-thiophen-2-yl)-isoxazol-3-ylmethyl]-2-(1-isopropyl-piperidin-4-ylcarbamoyl)-1H-benzoimidazole-4-carboxylic acid], the Ki was 3 nM.

Usually Ki stands for a measure of affinity in units of concentration, obtained from inhibition or displacement.
